Results: ChEMBL document CHEMBL1201862, “PubChem BioAssay data set” (2004)
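Step 1: Grow cells in 96-well plates. Step 2: Expose to compound for 48 hours at 5 concentrations. Step 3: Interpolate endpoints linearly; if unreached, use highest concentration. At the GI50, growth is halved.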 Calls of active or inactive are those of the source. No stated cut-off is given here; in the data, active = GI50 up to about 1.1 µM and inactive = higher.

What was measured:
Test in all cases: DTP human tumour cell line panel, 48 h
[1] = test system: MCF7
[2] = test system: MDA-MB-231
[3] = test system: OVCAR-8
[4] = test system: NCI-H23
[5] = test system: SNB-75
[6] = test system: Malme-3M
[7] = test system: UACC-62
[8] = test system: SR
[9] = test system: OVCAR-3
[10] = test system: OVCAR-4
[11] = test system: RPMI-8226
[12] = test system: MOLT-4
[13] = test system: 786-0
[14] = test system: NCI-H226
[15] = test system: MDA-N
[16] = test system: TK-10
[17] = test system: U-251
[18] = test system: NCI/ADR-RES
[19] = test system: SNB-19
[20] = test system: IGROV-1
[21] = test system: HT-29
[22] = test system: UACC-257
[23] = test system: MDA-MB-435
[24] = test system: Hs-578T
[25] = test system: UO-31
[26] = test system: BT-549
[27] = test system: K562
[28] = test system: SF-268
[29] = test system: A498
[30] = test system: SF-539
[31] = test system: RXF 393
[32] = test system: HCT-116
[33] = test system: OVCAR-5
[34] = test system: EKVX
[35] = test system: PC-3
[36] = test system: KM12
[37] = test system: CAKI-1
[38] = test system: SN12C
[39] = test system: HOP-62
[40] = test system: SK-MEL-2
[41] = test system: DU-145
[42] = test system: SK-MEL-28
[43] = test system: SF-295
[44] = test system: LOX IMVI
[45] = test system: COLO 205
[46] = test system: SW-620
[47] = test system: HL-60
[48] = test system: ACHN
[49] = test system: SK-MEL-5
[50] = test system: NCI-H522
[51] = test system: HCT-15
[52] = test system: NCI-H460
[53] = test system: M14
[54] = test system: CCRF-CEM
[55] = test system: HCC 2998
[56] = test system: SK-OV-3
[57] = test system: T47D
[58] = test system: HOP-92
[59] = test system: A549

OC1C2CN3CCN(C2)CC1(c1ccccc1)C3 (configuration not stated)
GI50 [1]: > 100 µM (inactive)
GI50 [2]: > 100 µM (inactive)
GI50 [3]: > 100 µM (inactive)
GI50 [4]: > 100 µM (inactive)
GI50 [5]: > 100 µM (inactive)
GI50 [6]: > 100 µM (inactive)
GI50 [7]: > 100 µM (inactive)
GI50 [8]: > 100 µM (inactive)
GI50 [9]: > 100 µM (inactive)
GI50 [10]: > 100 µM (inactive)
GI50 [11]: > 100 µM (inactive)
GI50 [12]: > 100 µM (inactive)
GI50 [13]: > 100 µM (inactive)
GI50 [14]: > 100 µM (inactive)
GI50 [15]: > 100 µM (inactive)
GI50 [16]: > 100 µM (inactive)
GI50 [17]: > 100 µM (inactive)
GI50 [18]: > 100 µM (inactive)
GI50 [19]: > 100 µM (inactive)
GI50 [20]: > 100 µM (inactive)
GI50 [21]: > 100 µM (inactive)
GI50 [22]: > 100 µM (inactive)
GI50 [23]: > 100 µM (inactive)
GI50 [24]: > 100 µM (inactive)
GI50 [25]: > 100 µM (inactive)
GI50 [26]: > 100 µM (inactive)
GI50 [27]: > 100 µM (inactive)
GI50 [28]: > 100 µM (inactive)
GI50 [29]: > 100 µM (inactive)
GI50 [30]: > 100 µM (inactive)
GI50 [31]: > 100 µM (inactive)
GI50 [32]: > 100 µM (inactive)
GI50 [33]: > 100 µM (inactive)
GI50 [34]: > 100 µM (inactive)
GI50 [35]: > 100 µM (inactive)
GI50 [36]: > 100 µM (inactive)
GI50 [37]: > 100 µM (inactive)
GI50 [38]: > 100 µM (inactive)
GI50 [39]: > 100 µM (inactive)
GI50 [40]: > 100 µM (inactive)
GI50 [41]: > 100 µM (inactive)
GI50 [42]: > 100 µM (inactive)
GI50 [43]: > 100 µM (inactive)
GI50 [44]: > 100 µM (inactive)
GI50 [45]: > 100 µM (inactive)
GI50 [46]: > 100 µM (inactive)
GI50 [47]: > 100 µM (inactive)
GI50 [48]: > 100 µM (inactive)
GI50 [49]: > 100 µM (inactive)
GI50 [50]: > 100 µM (inactive)

CC(C)(C)c1ccc(C(C)(C)C)c(N2C(=O)C3ON=C(c4ccc([N+](=O)[O-])cc4)C3C2=O)c1 (configuration not stated)
GI50 [1]: 22.8 µM (inactive)
GI50 [51]: 20.3 µM
GI50 [3]: 10.4 µM (inactive)
GI50 [4]: > 25 µM (inactive)
GI50 [5]: 5.07 µM (inactive)
GI50 [6]: > 25 µM (inactive)
GI50 [7]: 17.8 µM (inactive)
GI50 [8]: 3.48 µM (inactive)
GI50 [9]: 10.5 µM (inactive)
GI50 [52]: 6.75 µM (inactive)
GI50 [53]: > 25 µM (inactive)
GI50 [10]: 8.57 µM (inactive)
GI50 [11]: 10 µM (inactive)
GI50 [54]: > 25 µM (inactive)
GI50 [12]: > 25 µM (inactive)
GI50 [13]: 3.15 µM (inactive)
GI50 [14]: 18.6 µM (inactive)
GI50 [15]: 7.38 µM (inactive)
GI50 [16]: > 25 µM (inactive)
GI50 [18]: 17.3 µM (inactive)
GI50 [19]: > 25 µM (inactive)
GI50 [20]: 4.5 µM (inactive)
GI50 [21]: 21.4 µM (inactive)
GI50 [22]: > 25 µM (inactive)
GI50 [23]: 8.77 µM (inactive)
GI50 [24]: 6.98 µM (inactive)
GI50 [25]: 22.1 µM (inactive)
GI50 [26]: > 25 µM (inactive)
GI50 [27]: 11 µM (inactive)
GI50 [28]: 13.7 µM (inactive)
GI50 [55]: 5.02 µM (inactive)
GI50 [29]: 5.96 µM (inactive)
GI50 [30]: > 25 µM (inactive)
GI50 [31]: 15.1 µM (inactive)
GI50 [32]: 13.7 µM (inactive)
GI50 [33]: > 25 µM (inactive)
GI50 [34]: 20.3 µM (inactive)
GI50 [56]: > 25 µM (inactive)
GI50 [57]: > 25 µM (inactive)
GI50 [36]: > 25 µM (inactive)
GI50 [37]: > 25 µM (inactive)
GI50 [38]: > 25 µM (inactive)
GI50 [39]: 23.4 µM (inactive)
GI50 [58]: 9.46 µM (inactive)
GI50 [41]: 10.8 µM (inactive)
GI50 [42]: > 25 µM (inactive)
GI50 [43]: 12.9 µM (inactive)
GI50 [44]: 9.04 µM (inactive)
GI50 [59]: 5.61 µM (inactive)
GI50 [45]: > 25 µM (inactive)
GI50 [46]: 16.2 µM (inactive)
GI50 [47]: > 25 µM (inactive)
GI50 [48]: 15.2 µM (inactive)
GI50 [49]: > 25 µM (inactive)
GI50 [50]: 18.4 µM (inactive)

CP(=O)(O)C(N)c1ccccc1 (configuration not stated)
GI50 [1]: > 100 µM (inactive)
GI50 [51]: > 100 µM
GI50 [3]: > 100 µM (inactive)
GI50 [4]: > 100 µM (inactive)
GI50 [6]: > 100 µM (inactive)
GI50 [7]: > 100 µM (inactive)
GI50 [8]: > 100 µM (inactive)
GI50 [9]: > 100 µM (inactive)
GI50 [52]: > 100 µM (inactive)
GI50 [53]: > 100 µM (inactive)
GI50 [10]: > 100 µM (inactive)
GI50 [11]: > 100 µM (inactive)
GI50 [54]: > 100 µM (inactive)
GI50 [12]: > 100 µM (inactive)
GI50 [13]: > 100 µM (inactive)
GI50 [14]: > 100 µM (inactive)
GI50 [15]: > 100 µM (inactive)
GI50 [16]: > 100 µM (inactive)
GI50 [17]: > 100 µM (inactive)
GI50 [18]: > 100 µM (inactive)
GI50 [19]: > 100 µM (inactive)
GI50 [20]: > 100 µM (inactive)
GI50 [21]: > 100 µM (inactive)
GI50 [22]: > 100 µM (inactive)
GI50 [23]: > 100 µM (inactive)
GI50 [24]: > 100 µM (inactive)
GI50 [25]: > 100 µM (inactive)
GI50 [26]: > 100 µM (inactive)
GI50 [27]: > 100 µM (inactive)
GI50 [28]: > 100 µM (inactive)
GI50 [32]: > 100 µM (inactive)
GI50 [33]: > 100 µM (inactive)
GI50 [34]: > 100 µM (inactive)
GI50 [56]: > 100 µM (inactive)
GI50 [35]: > 100 µM (inactive)
GI50 [57]: > 100 µM (inactive)
GI50 [36]: > 100 µM (inactive)
GI50 [37]: > 100 µM (inactive)
GI50 [38]: > 100 µM (inactive)
GI50 [39]: > 100 µM (inactive)
GI50 [58]: > 100 µM (inactive)
GI50 [41]: > 100 µM (inactive)
GI50 [42]: > 100 µM (inactive)
GI50 [43]: > 100 µM (inactive)
GI50 [44]: > 100 µM (inactive)
GI50 [59]: > 100 µM (inactive)
GI50 [45]: > 100 µM (inactive)
GI50 [46]: > 100 µM (inactive)
GI50 [47]: > 100 µM (inactive)
GI50 [48]: > 100 µM (inactive)
GI50 [49]: > 100 µM (inactive)
GI50 [50]: > 100 µM (inactive)
